Assay results as given in ChEMBL document CHEMBL4020767, “Structural insight into the active site of mushroom tyrosinase using phenylbenzoic acid derivatives” (Bioorg Med Chem Lett, 2017).

Target: Mushroom tyrosinase (Agaricus bisporus, UniProt O42713+Q00024+C7FF04+C7FF05)
Experiment: Inhibition of mushroom tyrosinase […] measured at 60 secs interval for 25 times

**Q.** For `O=C(O)c1ccc(-c2ccccc2)cc1`, which IC50 is on record?
**A.** 63.24 µM

**Q.** For `O=C(O)c1cccc(-c2ccccc2)c1`, which IC50 is on record?
**A.** 6.97 µM

**Q.** `O=C(O)c1ccc(-c2ccc(O)cc2)cc1` was tested. Which IC50 did it give?
**A.** 14.7 µM

**Q.** `O=C(O)c1ccccc1-c1ccc(O)cc1` was tested. Which IC50 did it give?
**A.** 100.18 µM

**Q.** `O=C(O)c1ccccc1-c1ccccc1` was tested. Which IC50 did it give?
**A.** > 100 µM

**Q.** For `COc1ccc(-c2ccccc2C(=O)O)cc1`, which IC50 is on record?
**A.** > 100 µM

**Q.** How did the IC50 turn out when `COc1ccc(-c2ccc(C(=O)O)cc2)cc1` was run?
**A.** 15.3 µM

**Q.** For `COc1ccc(-c2cccc(C(=O)O)c2)cc1`, which IC50 is on record?
**A.** 15.3 µM

**Q.** With `O=C(O)c1cccc(-c2ccc(O)cc2)c1` as the molecule, how does the IC50 read?
**A.** 10.59 µM
